According to patent EP0319906A2, “Novel quinoline derivatives, processes for preparation thereof and antibacterial agent containing them” (Dainippon Pharmaceutical Co., Ltd., priority 1987, dated 1989):
≈ marks a conversion by molar mass, not a printed value.

Legend:
[1] = system: E. coli NIHJ JC-2; experiment: In vitro antibacterial activity, twofold agar-dilution MIC; format: cell-based; conditions: Escherichia coli, NIHJJC2; E. coli NIHJ JC-2; Mueller-Hinton agar, 20-hour incubation at 37 °C; calculated for free base; read-out: minimum inhibitory concentrations (MIC)
Procedure: (§1) The figures in the table show minimum inhibitory concentrations (MIC) (µg/ml), calculated for free base. […] One loopful of an overnight culture of test organisms in Mueller-Hinton broth was inoculated onto 10 ml drug- containing agar layers in petri dishes. Bacterial inocula contained approximately 10⁶ colonyl-forming units. […] The MIC was defined as the lowest drug concentration which prevented visible bacterial growth.

[2] = system: E. coli P-5101; experiment: as above; format: cell-based; conditions: Escherichia coli, P5101; E. coli P-5101; Mueller-Hinton agar, 20-hour incubation at 37 °C; calculated for free base; read-out: minimum inhibitory concentrations (MIC)
Procedure: as §1

[3] = system: P. aeruginosa 12; experiment: as above; format: cell-based; conditions: Pseudomonas aeruginosa; P. aeruginosa 12; Mueller-Hinton agar, 20-hour incubation at 37 °C; calculated for free base; read-out: minimum inhibitory concentrations (MIC)
Procedure: as §1

[4] = system: S. aureus 209 JC-1; experiment: as above; format: cell-based; conditions: Staphylococcus aureus, 209JC1; S. aureus 209 JC-1; Mueller-Hinton agar, 20-hour incubation at 37 °C; calculated for free base; read-out: minimum inhibitory concentrations (MIC)
Procedure: as §1

[5] = system: S. aureus No. 80; experiment: as above; format: cell-based; conditions: Staphylococcus aureus; S. aureus No. 80; Mueller-Hinton agar, 20-hour incubation at 37 °C; calculated for free base; read-out: minimum inhibitory concentrations (MIC)
Procedure: as §1

[6] = system: S. aureus Terajima; experiment: as above; format: cell-based; conditions: Staphylococcus aureus; S. aureus Terajima; Mueller-Hinton agar, 20-hour incubation at 37 °C; calculated for free base; read-out: minimum inhibitory concentrations (MIC)
Procedure: as §1

[7] = system: S. epidermidis No. 8; experiment: as above; format: cell-based; conditions: Staphylococcus epidermidis; S. epidermidis No. 8; Mueller-Hinton agar, 20-hour incubation at 37 °C; calculated for free base; read-out: minimum inhibitory concentrations (MIC)
Procedure: as §1

[8] = system: S. marcescens S-9; experiment: as above; format: cell-based; conditions: Serratia marcescens, S9; S. marcescens S-9; Mueller-Hinton agar, 20-hour incubation at 37 °C; calculated for free base; read-out: minimum inhibitory concentrations (MIC)
Procedure: as §1

[9] = system: S. pyogenes A65; experiment: as above; format: cell-based; conditions: Streptococcus pyogenes; S. pyogenes A65; Mueller-Hinton agar, 20-hour incubation at 37 °C; calculated for free base; read-out: minimum inhibitory concentrations (MIC)
Procedure: as §1

[10] = system: C. Trachomatics G/ur 1242; experiment: Antichlamydia activity, MIC in McCoy cells (inclusion bodies); format: cell-based; conditions: C. Trachomatics G/ur 1242; McCoy cells, 36 °C for 40-48 hours; calculated for free base; read-out: minimum inhibitory concentrations (MIC)
Procedure: (§2) The figures in the table show minimum inhibitory concentrations (MIC), (μg/ml), calculated for free base. Minimum inhibitory concentrations (MIC) were determined as follows. […] The cells were trypsinized and suspended in the same culture medium at a cell concentration of 1-2 x 10^5 cells/ml. One ml of the cell suspension was pipetted into flat-bottomed plastic tubes (14 mm in diameter) containing a cover slip (12 mm in diameter). The tubes were incubated in 5 % CO2-air at 36 °C for 20 hours. One-half ml of a chlamydial suspension (ca. 1-4 x 103 inclusion body forming units) was added into each tube, which was then centrifuged at 1500 x g for 60 minutes. The tubes were incubated for 1 hour at 36 °C. […] After further incubation at 36 °C for 40-48 hours, the cells on the cover glasses were stained with the Giemsa's solution. […] The MIC was defined as the lowest drug concentration where there were no inclusion bodies in all the cells on the cover slip.

[11] = system: C. Trachomatics G/ur 1317; experiment: as above; format: cell-based; conditions: C. Trachomatics G/ur 1317; McCoy cells, 36 °C for 40-48 hours; calculated for free base; read-out: minimum inhibitory concentrations (MIC)
Procedure: as §2

[12] = system: C. Trachomatics G/ur 1448; experiment: as above; format: cell-based; conditions: C. Trachomatics G/ur 1448; McCoy cells, 36 °C for 40-48 hours; calculated for free base; read-out: minimum inhibitory concentrations (MIC)
Procedure: as §2

[13] = system: C. Trachomatics G/ur 931; experiment: as above; format: cell-based; conditions: C. Trachomatics G/ur 931; McCoy cells, 36 °C for 40-48 hours; calculated for free base; read-out: minimum inhibitory concentrations (MIC)
Procedure: as §2

[14] = system: M. buccale CH-20249; experiment: Antimycoplasma activity, twofold agar dilution MIC; format: cell-based; conditions: 48 h; M. buccale CH-20249; Chanock agar, 37 °C for 2 days, anaerobically; calculated for free base; read-out: minimum inhibitory concentrations (MIC)
Procedure: The figures in the table show minimum inhibitory concentrations (MIC), (μg/ml), calculated for free base. Minimum inhibitory concentrations (MIC) were determined by the twofold agar dilution method. The media used were Chanock broth and agar [PPLD broth and agar (Difco) supplemented with 20 % horse serum and 10 % fresh yeast extract]. A 2-3 day broth culture of organisms was diluted with Chanock broth to a cell density of about 10^6 cells/ml. One loopful (about […]) of the organism dilution was spotted onto 10-ml drug containing Chanock agar in petri dishes using a multiple inoculator ([…] International). […] Incubation was performed anaerobically using the […] anaerobic system (BBL) for M. buccale, M. fermentans, M. hominis, M. orale and M. salivarium, and aerobically for other Mycoplasma spp. The MIC was defined as the lowest compound concentration at which no growth of organism was detected.

[15] = in vivo; conditions: mouse, po, orally given to male mice (ddY), dead mice counted after 7 days, Behrens-Kaerber method, read-out: LD₅₀
Procedure: A suspension containing each of compounds of this invention in various concentrations was orally given to male mice (ddY) at a dose of 0.1 ml per 10 g of body weight. The number of dead mice was counted after 7 days, and the value of median lethal dose (LD₅₀, mg/kg) was calculated in accordance with the Behrens-Kaerber method.

[16] = Urinary excretion in mice; format: in vivo
Procedure: A suspension containing Compound 1 was orally administered to mace at a dose of 5 mg/kg. Urine was collected over a period of 24 hours after administration. The level of the compound in urine was determined by the thin-layer cup-plated method using Escherichia coli kp as an indicator organism.

Cc1c(F)c(N2C[C@@H](C)N[C@@H](C)C2)c(F)c2c1c(=O)c(C(=O)O)cn2C1CC1 [Compound 1, 1-cyclopropyl-6,8-difluoro-5-methyl-7-(cis-3,5-demethyl-1-piperazinyl)-1,4-dihydro-4-oxoquinoline-3-carboxylic acid]
MIC [1]: 0.025 µg/mL (≈ 0.0639 µM)
MIC [2]: 0.025 µg/mL (≈ 0.0639 µM)
MIC [3]: 0.2 µg/mL (≈ 0.511 µM)
MIC [4]: 0.05 µg/mL (≈ 0.128 µM)
MIC [5]: 0.0125 µg/mL (≈ 0.0319 µM)
MIC [6]: 0.05 µg/mL (≈ 0.128 µM)
MIC [7]: 0.025 µg/mL (≈ 0.0639 µM)
MIC [8]: 0.39 µg/mL (≈ 0.996 µM)
MIC [9]: 0.2 µg/mL (≈ 0.511 µM)
MIC [10]: 0.025 µg/mL (≈ 0.0639 µM)
MIC [11]: 0.013 µg/mL (≈ 0.0332 µM)
MIC [12]: 0.025 µg/mL (≈ 0.0639 µM)
MIC [13]: 0.013 µg/mL (≈ 0.0332 µM)
MIC [14]: 0.025 µg/mL (≈ 0.0639 µM)
LD50 at 168 h [15]: > 2000 mg/kg
Amount ([16]; amount in urine over 24 hours after oral 5 mg/kg): 0.105 mg
dose excreted at 24 h ([16]; mouse, in vivo, oral 5 mg/kg, mice, read-out: Urinary recovery for 24 hours): 12.7%
Volume ([16]; urine collected over 24 hours after oral 5 mg/kg): 14.0 mL
